How the values were obtained:
[1] = test system: ddhA gene (promoter Pddh of ddh operon); experiment: RT-PCR analysis of ddhA gene transcription induction by sulfur compounds; format: cell-based, Rv. sulfidophilum W-1S; details: 3 days in 4CMOM medium, bright aerobic and dark aerobic condition
Method: Extraction of RNA was carried out using RNeasy Mini Kit (QIAGEN) according to the protocol attached thereto. For dissolving the cells at that time, lysozyme was added thereto in the indicated concentration. For the removal of the contaminated DNA, DNase I (TaKaRa) was used by the method indicated in the protocol together with the buffer attached thereto. Incubation was carried out at 37° C. for 30 minutes and, after that, RNA was purified via a PCI treatment and a precipitating operation with ethanol. A reverse transcription reaction was carried out where 1 μg of purified RNA as a template using an RNA PCR Kit (AMV) Ver. 2.1 (TaKaRa). In the reverse transcription reaction, things contained in the kit, i.e. reverse transcriptase, RNase inhibitor, random nonamer, buffer, dNTP and MgCl2 were used and the reaction was conducted at 45° C. for 28 minutes. A PCR was carried out by the same manner as in the above mentioned “4: PCR” using 4 μl of the solution after the reverse transcription reaction as a template.
Firstly, investigation of a DMS-inductive property of Pddh was planned. Primers ddhA1 and ddhA2 were designed based on ddhA gene sequence on the database. […]

SENS-AS strain = experiment: Specificity of SENS-AS strain to metals other than arsenic; format: cell-based, Rv. sulfidophilum
Text: Therefore, specificity to metal of the SENS-AS strain was investigated by adding a sample containing metal other than arsenic to the SENS-AS strain and checking the responding property to those samples. With regard to the metal other than arsenic, there were used antimony and bismuth which have been reported to inherently show a responding property to ArsR and also cobalt, cadmium, nickel, zinc and lead where responding property in a protein having the similar sequence to metal-bonding site of ArsR has been confirmed already [L. S. Busenlehner, et al., (2003) FEMS Microbiol. Rev., 27:131-43]. The responding property was also tested for a solution in which iron, manganese, copper and aluminum which are abundantly contained in tap water were mixed. The experiment was carried out by the same method as in the detection of arsenic, rate of red pigments (DMSO and SO) to the total sum of DMSO, DMSE, SO and SE was calculated from the area value of each peak shown in the chart prepared as a result of an HPLC analysis, mean value and standard deviation for each sample were calculated and graphs were prepared.
From the above results, it was now made clear that the arsenic-detecting biosensor SENS-AS strain responded arsenic and bismuth. However, in order to respond to bismuth, a bismuth concentration of as high as 100-fold as compared with arsenic was necessary.

DMS biosensor strain = experiment: Response of DMS biosensor strain (pSDMS in pigment variant): color tone and rate of red pigment by HPLC; format: cell-based, Rv. sulfidophilum; details: third day of incubation, bright aerobic condition, n=3
Method: When incubation of a bacterium strain was conducted in 10 ml of medium in a test tube under various conditions (under slightly aerobic and bright condition; under slightly aerobic and dark condition; and under anaerobic and bright condition), the incubation was done for three days. The culture liquid (1 ml) was placed in an Eppendorf tube, the pellets after centrifugal separation was frozen at −80° C. for 2 hours and then freeze-dried for one night. An appropriate amount (100 μl to 500 μl) of a mixed liquid of acetone and methanol was added to the resulting freeze-dried product, subjected to vortex for 2 minutes and then centrifuged for 5 minutes at 14,000 rpm using a portable centrifuge and the resulting supernatant liquid was used as a sample for an HPLC. […]
Since DMS is hardly soluble in water, ethanol was used as a solvent for the manufacture of concentrated stocks and preparation of diluted series. […] Analysis of pigment composition was conducted via an HPLC analysis the same as before and, from the value of area of each peak shown in the resulting HPLC chart, rate of red pigments (DMSO and SO) to the sum of total carotenoid pigment (DMSO, DMSE, SO, SE and neurosporene) was calculated. For each sample, mean value and standard deviation was calculated from the above value and a graph was prepared. […]

SMILES | ddhA gene transcription induction [1] | concentration needed for response as compared with arsenic (SENS-AS strain) | DMS concentration giving significant accumulation of SO and discriminable color tone (DMS biosensor strain)
C[S+](C)[O-] [dimethyl sulfoxide] | no significant induction of ddhA gene transcription |  | 
[Bi] [bismuth] |  | 100 fold | 
CSC [DMS, dimethyl sulfide] | apparent ddhA gene transcription induction was observed |  | 3 mM
